From patent publication US6221901A, “Magnesium (-)hydroxycitrate, method of preparation, applications, and compositions in particular pharmaceutical containing same” (priority 1996, dated 2001)
Read-outs that look alike come from different tables or passages of the source.

Tests used:
[1] = test system: human epithelial cells and rat arterial smooth muscle cells; assay: Mortality of human epithelial cells and of rat arterial smooth muscle cells (antioxidant effect, model of oxygen toxicity); type: cell-based; conditions: for protective effect on cell mortality: result in words; for Reduction in percentages: cell mortality: in culture medium: (-)hydroxycitrate 0.1 mM, silicon 0.036 mM, magnesium 0.1 mM
Procedure: (§1) 1) Study of the Mortality of Human Epithelial Cells and of Rat Arterial Smooth Muscle Cells.
The antioxidant effects of (-)hydroxycitrate and of different minerals were tested according to the protocol described by Michiels et al: "A new experimental model to study oxygen toxicity", Arch. int. Physiol. Biochem. 94 (5), S13-S18, 1986, using rat hepatocytes, as well as human epithelial cells and rat arterial smooth muscle cells.
(§2) The various products were respectively tested at the following concentrations: […]

[2] = test system: rat arterial smooth muscle cells; assay: Accumulation of intracellular lipids in arterial smooth muscle cells; type: cell-based; conditions: for Reduction in percentages: accumulation of lipids: in culture medium: (-)hydroxycitrate 0.1 mM, silicon 0.036 mM, magnesium 0.1 mM
Procedure: as §1
(§3) The inhibitory effects of these compounds on the proliferation of arterial smooth muscle and on the accumulation of intracellular lipids was also tested using the method described by Shrivastava et al. in Meth. Find. Exp. Clin. Pharmacol. 15 (6), pages 345-350, 1993.
as §2

[3] = test system: rat arterial smooth muscle cells; assay: Proliferation of arterial smooth muscle cells; type: cell-based; conditions: for Reduction in percentages: proliferation of cells: in culture medium: (-)hydroxycitrate 0.1 mM, silicon 0.036 mM, magnesium 0.1 mM
Procedure: as §1, §3, §2

[4] = literature, Majeed et al. 1994; in words; cited from earlier work
[5] = test system: hypercholesterolemic rabbits; assay: Effect in vivo on the cholesterol level in hypercholesterolemic rabbits; set-up: species or system rabbit; conditions: 750 mg/kg oral
Procedure: (§4) 2) Study of the Effect in vivo on the Cholesterol Level and on Lipidic Deposits in Hypercholesterolemic Rabbits.
(§5) Two batches of 20 male rabbits (Elevage scientifique des Dombes: 2.5-3 kg) received a cholesterol-rich food (1%) for a period of 8 weeks. The first batch were not treated and therefore served as a control while the second batch received 750 mg/kg of magnesium (-)hydroxycitrate by oral route.

[6] = test system: wall of the aorta, hypercholesterolemic rabbits; assay: Lipidic deposits on the wall of the aorta in hypercholesterolemic rabbits; type: in vivo, rabbit; conditions: 750 mg/kg oral
Procedure: as §4, §5

[7] = test system: hypercholesterolemic rabbit; type: in vivo
Procedure: 3) Study of Antiatherosclerotic Effects in the Hypercholesterolemic Rabbit.
Two batches of 15 male rabbits (Elevage scientifique des Dombes: 2.5-3 kg) received a cholesterol-rich food: 0.2% for the period D+8 to D+37, then 1% until D+69, when the animals are sacrificed.
The first batch was not treated and therefore served as a control while the second batch received 500 mg/kg of magnesium (-)hydroxycitrate by oral route.

[8] = test system: hypertensive rat; assay: Anti-hypertensive activity in the hypertensive rat; type: in vivo; conditions: 500 mg/kg/day oral, one week, vs untreated controls
Procedure: 4) Study of Anti-hypertensive Activity in the Hypertensive Rat
Magnesium (-)hydroxycitrate was tested on 12 hypertensive rats. A batch of 12 other hypertensive rats was used as a control batch. An average reduction in arterial pressure of 17%±3% with respect to the controls (untreated) was noted after one week of treatment at a rate of 500 mg per kilogram per day by oral route.

[9] = in vivo; conditions: rat
Text: The toxicity of magnesium (-)hydroxycitrate is greater than 2 g/kg by intraperitoneal route or than 7 g/kg per os in the rat. That of metals, in particular in the form of salts or mineral oxides (frequently administered as trace elements) is well known.

[10] = result in words, with respect to (-)hydroxycitrate or magnesium
[11] = 500 mg/kg/day oral, 62 days, vs controls

O=C(O)CC(O)(C(=O)O)C(O)C(=O)O (single isomer, unassigned; (-)) [(-)hydroxycitrate, (-)hydroxycitric acid]
protective effect on cell mortality [1]: no protective effect on cell mortality | Reduction in percentages: accumulation of lipids [2]: 16 (±3) % | Reduction in percentages: proliferation of cells [3]: 6 (±4) % | body weight [4]: reduces body weight

Silicon
Reduction in percentages: cell mortality [1]: 28 (±7) % | Reduction in percentages: accumulation of lipids [2]: 32 (±5) % | Reduction in percentages: proliferation of cells [3]: 28 (±6) %

O=C(O)C[C@@](O)(C(=O)O)[C@H](O)C(=O)O [Magnesium (-)hydroxycitrate, magnesium (-)hydroxycitrate]
protective effect on cell mortality [1]: more protective effect | Reduction in percentages: accumulation of lipids [2]: 81 (±13) % | effect on accumulation of lipids [2, 10]: very significant increase in the effects | Reduction in percentages: proliferation of cells [3]: 48 (±8) % | effect on cell proliferation [3, 10]: very significant increase in the effects | HDL's, variation ([5]; 4 weeks, vs controls): +8.5% | LDL's, variation ([5]; 4 weeks, vs controls): -22.4% | Total cholesterol, variation ([5]; 4 weeks, vs controls): -19.5% | Total cholesterol/HDL ratio, variation ([5]; 4 weeks, vs controls): -28.2% | HDL's, in words ([5]; after 4 weeks): increase in HDL's | LDL's, in words ([5]; after 4 weeks): reduction in LDL's | HDL's ([5]; after 4 weeks of treatment): 0.246 g/L | LDL's ([5]; after 4 weeks of treatment): 4.00 g/L | Total cholesterol ([5]; after 4 weeks of treatment): 4.47 g/L | Total cholesterol/HDL ratio ([5]; after 4 weeks of treatment): 19.22 | number of lipidic deposits, aortic arch, week 4 ([6]; 4 weeks): 3.5 | number of lipidic deposits, thoracic arch, week 4 ([6]; 4 weeks): 0.0 | number of lipidic deposits, aortic arch, week 8 ([6]; 8 weeks): 1.5 | number of lipidic deposits, thoracic arch, week 8 ([6]; 8 weeks): 0.0 | number of lipidic deposits, in words ([6]; after 4 weeks and after 8 weeks): reduction in the number of lipidic deposits | number of lipidic deposits, total ([6]; sum of aortic and thoracic arch, weeks 4 and 8): 5.0 | lipidic deposits, total, Variation % ([6]; vs controls): -80.4% | Reduction in weight of spleen ([7]; 500 mg/kg/day oral, 62 days): -20.3% | Reduction in weight of surrenal glands ([7]; 500 mg/kg/day oral, 62 days): -21.6% | Reduction in lipidic deposits on the aortic vascular wall ([7]; 500 mg/kg/day oral, 62 days, vs control batch): 46.3% | Reduction in the total cholesterol level [7, 11]: -13.75% | Reduction in the total cholesterol/HDL ratio [7, 11]: -25.72% | increase in HDL levels [7, 11]: +12.5% | Reduction in LDL's ([7]; 500 mg/kg/day oral, 62 days, vs controls, given without sign): 16.36% | weight of heart, liver ([7]; 500 mg/kg/day oral, 62 days, in words): Reduction in weight of heart, liver | overall effect on the hypercholesterolemic rabbit ([7]; non-cytotoxic doses, in words): hypocholesterolemia and anti-atherosclerotic effect | average reduction in arterial pressure [8]: 17%±3% | LD50 ([9]; ip, intraperitoneal, read-out: toxicity, intraperitoneal route): > 2000 mg/kg | LD50 ([9]; po, per os, read-out: toxicity, per os): > 7000 mg/kg

Magnesium
Reduction in percentages: cell mortality [1]: 6 (±3) % | protective effect on cell mortality [1]: reduces this mortality very slightly | Reduction in percentages: accumulation of lipids [2]: 20 (±9) % | Reduction in percentages: proliferation of cells [3]: 2 (±2) %
